The test relates to P388 leukemia ip, CD2F1 mice, survival T/C. The experiment in a line: NCI In Vivo Anticancer Drug Screen. Data for tumor model P388 Leukemia (intraperitoneal) in CD2F1 (CDF1) mice. The note with it: endpoint: median survival time, higher = longer survival. In a few lines: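 Mice carrying the transplanted tumor received test compound or vehicle. Survival was recorded in each group, and the value is the treated-group measurement divided by that of the vehicle-treated control group.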

Where [1] appears, read: dose: 60.0 mg/kg/injection, schedule: Q01DX005 (ip), vehicle: Klucel (hydroxypropylcellulose) (HPC).
[2] abbreviates: dose: 25.0 mg/kg/injection, schedule: Q01DX009 (ip), vehicle: saline with Tween-80.
The mark [3] stands for this setting: dose: 50.0 mg/kg/injection, schedule: Q01DX009 (ip), vehicle: saline with Tween-80.
Where [4] appears, read: dose: 100.0 mg/kg/injection, schedule: Q01DX009 (ip), vehicle: saline with Tween-80.
[5] abbreviates: dose: 200.0 mg/kg/injection, schedule: Q01DX009 (ip), vehicle: saline with Tween-80.
Where [6] appears, read: dose: 400.0 mg/kg/injection, schedule: Q01DX009 (ip), vehicle: saline with Tween-80.
Setting [7] is: dose: 100.0 mg/kg/injection, schedule: Q04DX002 (ip), vehicle: saline with Tween-80.
The mark [8] stands for this setting: dose: 200.0 mg/kg/injection, schedule: Q04DX002 (ip), vehicle: saline with Tween-80.
The mark [9] stands for this setting: dose: 400.0 mg/kg/injection, schedule: Q04DX002 (ip), vehicle: saline with Tween-80.
The mark [10] stands for this setting: dose: 400.0 mg/kg/injection, schedule: Q04DX003 (ip), vehicle: saline with Tween-80.
Setting [11] is: dose: 50.0 mg/kg/injection, schedule: Q01DX005 (ip), vehicle: Klucel (hydroxypropylcellulose) (HPC).
The mark [12] stands for this setting: dose: 100.0 mg/kg/injection, schedule: Q01DX005 (ip), vehicle: Klucel (hydroxypropylcellulose) (HPC).
[13] abbreviates: dose: 200.0 mg/kg/injection, schedule: Q01DX005 (ip), vehicle: Klucel (hydroxypropylcellulose) (HPC).

SMILES strings stand for the structures. “And” between values parts separate entries of the source, which are not always exact repeats. Equal values may be shown once. Toxic doses and inconclusive results are not listed. Peptide text beside a SMILES is read from it.

On to `Cc1ccc(C2ON2S(=O)(=O)c2ccc(C)cc2)cc1` (configuration not stated), for which the T/C runs as follows: (dose: 50.0 mg/kg/injection, schedule: Q01DX009 (ip), vehicle: Klucel (hydroxypropylcellulose) (HPC)) 113 % of control; (dose: 100.0 mg/kg/injection, schedule: Q01DX009 (ip), vehicle: Klucel (hydroxypropylcellulose) (HPC)) 105 % of control; (dose: 200.0 mg/kg/injection, schedule: Q01DX009 (ip), vehicle: Klucel (hydroxypropylcellulose) (HPC)) 100 % of control.

For the compound `Cc1cccc(/C=N/Nc2ccc3ccccc3n2)n1`, the T/C by setting is: (dose: 6.25 mg/kg/injection, schedule: Q01DX005 (ip), vehicle: Klucel (hydroxypropylcellulose) (HPC)) 102 % of control; (dose: 12.5 mg/kg/injection, schedule: Q01DX005 (ip), vehicle: Klucel (hydroxypropylcellulose) (HPC)) 95 % of control; (dose: 25.0 mg/kg/injection, schedule: Q01DX005 (ip), vehicle: Klucel (hydroxypropylcellulose) (HPC)) 96 % of control.

With `NCCCCC(NC(=O)C(N)CCCN=C(N)N)C(=O)O` (stereo not drawn) (H-Arg-Lys-OH; configuration not given here), the T/C runs as follows: (dose: 50.0 mg/kg/injection, schedule: Q01DX005 (ip), vehicle: saline) 94 % of control; (dose: 100.0 mg/kg/injection, schedule: Q01DX005 (ip), vehicle: saline) 106 % of control; (dose: 200.0 mg/kg/injection, schedule: Q01DX005 (ip), vehicle: saline) 100 % of control.

Turning to `CC1=C(S(=O)(=O)c2ccccc2)C(c2ccccc2)N(C)O1` (configuration not stated), the T/C is, setting by setting: under setting [1], 102 % of control; (dose: 120.0 mg/kg/injection, schedule: Q01DX005 (ip), vehicle: Klucel (hydroxypropylcellulose) (HPC)) 103 % of control; (dose: 240.0 mg/kg/injection, schedule: Q01DX005 (ip), vehicle: Klucel (hydroxypropylcellulose) (HPC)) 98 % of control.

As for `C[C@H](N)C(=O)N[C@@H]1[C@H]2C(=C(O)C[C@@H](O)[C@@H]2O)C(=O)O[C@@H]1C`, the T/C runs as follows: (dose: 150.0 mg/kg/injection, schedule: Q01DX005 (ip), vehicle: saline) 115 % of control; (dose: 600.0 mg/kg/injection, schedule: Q01DX005 (ip), vehicle: suspension in saline) 153 % of control.

For the compound `CC1(c2cccs2)NC(=O)NC1=O` (configuration not stated), the T/C is, setting by setting: under setting [2], 100 % of control; under setting [3], 109 % of control; under setting [4], 98 % of control; under setting [5], 104 % of control; under setting [6], 101 % of control.

For the compound `CCCCCCCCCCCCCCCC[N+](C)(C)CCNC(=O)c1ccccc1`, the T/C is 101 % of control (dose: 3.12 mg/kg/injection, schedule: Q01DX009 (ip), vehicle: water); 106 % of control (dose: 6.25 mg/kg/injection, schedule: Q01DX009 (ip), vehicle: water); 99 % of control and 101 % of control (dose: 12.5 mg/kg/injection, schedule: Q01DX009 (ip), vehicle: water).

With `CCOC(=O)/C(O)=C/C1=CC(=O)CC(C)(C)C1`, the T/C was 110 % of control under setting [7], 114 % of control under setting [8] and 103 % of control under setting [9].

Regarding `[Br][Ga]([Br])[Br]`, the T/C by setting is: (dose: 25.0 mg/kg/injection, schedule: Q01DX009 (ip), vehicle: saline) 115 % of control; (dose: 50.0 mg/kg/injection, schedule: Q01DX009 (ip), vehicle: saline) 100 % of control; (dose: 100.0 mg/kg/injection, schedule: Q04DX003 (ip), vehicle: saline sonified) 100 % of control.

For the compound `CC(=N\[O-])/C(C)=N/O.CC(=N\[O-])/C(C)=N/O.CC(=O)[O-].CC(=O)[O-].O.[Rh+2].[Rh+2]`, the T/C by setting is: (dose: 6.25 mg/kg/injection, schedule: Q01DX009 (ip), vehicle: saline with Tween-80) 123 % of control; (dose: 12.5 mg/kg/injection, schedule: Q01DX009 (ip), vehicle: saline with Tween-80) 119 % of control.

Turning to `CCCCCCCCCCCCN1CN=C(N)N(C#N)C1`, the T/C by setting is: under setting [7], 92 % of control; under setting [8], 99 % of control; under setting [9], 90 % of control.

With `Cc1ccc2nc(NC(=O)N(CCCl)N=O)sc2c1`, the T/C under setting [10] is 168 % of control.

In the case of `CCC1=C(C)CCN(C)C1Cc1ccc(OC)cc1` (configuration not stated), the T/C runs as follows: (dose: 15.0 mg/kg/injection, schedule: Q01DX005 (ip), vehicle: Klucel (hydroxypropylcellulose) (HPC)) 106 % of control; (dose: 30.0 mg/kg/injection, schedule: Q01DX005 (ip), vehicle: Klucel (hydroxypropylcellulose) (HPC)) 98 % of control; under setting [1], 100 % of control and 102 % of control.

For the compound `COC(=O)c1ccc(COc2ccc([N+](=O)[O-])cc2Cl)cc1`, the T/C is 100 % of control (dose: 50.0 mg/kg/injection, schedule: Q01DX005 (ip), vehicle: saline with Tween-80); 104 % of control (dose: 100.0 mg/kg/injection, schedule: Q01DX005 (ip), vehicle: saline with Tween-80); 105 % of control (dose: 100.0 mg/kg/injection, schedule: Q04DX003 (ip), vehicle: saline with Tween-80); 104 % of control (dose: 200.0 mg/kg/injection, schedule: Q01DX005 (ip), vehicle: saline with Tween-80); 105 % of control (dose: 200.0 mg/kg/injection, schedule: Q04DX003 (ip), vehicle: saline with Tween-80); 103 % of control under setting [10].

For the compound `O=C(C(Br)C(Br)c1ccccc1)N1CCOCC1` (configuration not stated), the T/C under setting [4] is 118 % of control; the T/C (dose: 178.0 mg/kg/injection, schedule: Q01DX009 (ip), vehicle: saline with Tween-80) was 113 % of control; the T/C (dose: 266.0 mg/kg/injection, schedule: Q01DX009 (ip), vehicle: saline with Tween-80) is 119 % of control; the T/C under setting [6] was 121 % of control.

`O=c1oc2c(c3c1CCCC3)c(=O)[nH]c1ccccc12`: the T/C under setting [11] is 111 % of control, the T/C under setting [12] is 116 % of control and the T/C under setting [13] was 115 % of control.

For the compound `C=CCN(NC(=O)c1ccccc1)C(=O)c1ccccc1`, the T/C was 105 % of control (dose: 100.0 mg/kg/injection, schedule: Q04DX003 (ip), vehicle: saline); 100 % of control (dose: 200.0 mg/kg/injection, schedule: Q04DX003 (ip), vehicle: saline); 110 % of control (dose: 400.0 mg/kg/injection, schedule: Q04DX003 (ip), vehicle: saline).

In the case of `O=C(CNC(=O)NCc1ccco1)N/N=C/c1ccccc1O`, the T/C under setting [3] was 89 % of control and the T/C under setting [4] is 96 % of control.

`Nc1nc(=O)n(C2CCCCO2)cc1I` (configuration not stated): the T/C is 105 % of control under setting [11], 102 % of control under setting [12] and 111 % of control under setting [13].

On to `CC(C)(C)N=C(CCN1CCN(c2ccccc2)CC1)Nc1ccccc1Cl`, for which the T/C is 109 % of control under setting [3], 108 % of control under setting [4] and 100 % of control under setting [5].

On to `O=C(c1ccccc1)c1cnc2ccccn12`, for which the T/C was 100 % of control (dose: 100.0 mg/kg/injection, schedule: Q04DX003 (ip), vehicle: Klucel (hydroxypropylcellulose) (HPC)) and 100 % of control (dose: 200.0 mg/kg/injection, schedule: Q04DX003 (ip), vehicle: Klucel (hydroxypropylcellulose) (HPC)).

Consider `COC1=CC(=O)C2CC=CC(CC(=O)O)C2(C)C1=O` (configuration not stated), for which the T/C is, setting by setting: under setting [11], 108 % of control; under setting [12], 103 % of control.

Regarding `CC1(C)C(C)(C)C1(Br)Br`, the T/C was 102 % of control (dose: 12.5 mg/kg/injection, schedule: Q01DX009 (ip), vehicle: saline + alcohol); 111 % of control (dose: 25.0 mg/kg/injection, schedule: Q01DX009 (ip), vehicle: saline + alcohol); 103 % of control (dose: 50.0 mg/kg/injection, schedule: Q01DX009 (ip), vehicle: saline + alcohol); 100 % of control and 95 % of control (dose: 100.0 mg/kg/injection, schedule: Q01DX009 (ip), vehicle: saline + alcohol); 89 % of control (dose: 200.0 mg/kg/injection, schedule: Q01DX009 (ip), vehicle: saline + alcohol).

`Cc1ccc2nc(NC(=O)OCc3ccccc3)sc2c1`: the T/C by setting is: (dose: 6.25 mg/kg/injection, schedule: Q01DX009 (ip), vehicle: Klucel (hydroxypropylcellulose) (HPC)) 97 % of control; (dose: 12.5 mg/kg/injection, schedule: Q01DX009 (ip), vehicle: Klucel (hydroxypropylcellulose) (HPC)) 101 % of control.

`Nc1cccc(NCc2ccccn2)n1`: the T/C under setting [11] was 101 % of control and the T/C under setting [12] was 104 % of control.

Regarding `CCCCCN(CCCCC)c1nsc(Cl)n1`, the T/C by setting is: under setting [2], 108 % of control; under setting [3], 103 % of control; under setting [4], 100 % of control.

Values taken from PubChem BioAssay AID330 (DTP/NCI, 2004).
